{
  "source": "paper PMC12526004",
  "about": "“Tiliroside Suppresses Uric Acid Production in Hepatocytes and Attenuates Purine-Induced Hyperuricemia in Male ICR Mice” (Molecules, 2025)",
  "key": {"[1]": {"test_system": "mice with purine-induced hyperuricemia", "test": "Plasma UA in mice with purine-induced hyperuricemia", "assay_type": "in vivo, male ICR mice", "settings": "three days; for effect on plasma UA increase / effect on plasma UA levels: vs hyperuricemic control", "method": "The antihyperuricemic effect of tiliroside was evaluated using mice with purine-induced hyperuricemia, following a previously described procedure. […] The test compounds were suspended in 0.2 mL of 0.5% CMC-Na based on the average body weight of each group. The actual volume administered was adjusted according to the individual body weight of each mouse. Prior to each administration, the mice were fasted for four hours. The negative and hyperuricemic control groups received the vehicle (0.5% CMC-Na) alone. […] GMP and IMP were dissolved in 0.2 mL of PBS (–) based on the average body weight of all mice. The injection volume was similarly adjusted according to each mouse’s body weight. These injections were performed one hour after the final oral administration of the test compounds or vehicle. The negative control group received PBS (–) alone. […] The liver and kidneys were then excised. Blood samples were centrifuged at 5000× g for 10 min at 4 °C to obtain plasma, which was stored at −80 °C until analysis. UA concentrations in plasma and liver homogenates were determined using the uricase-based Uric Acid C-Test Wako. Protein concentrations in the liver samples were measured with the Pierce™ BCA Protein Assay Kit. Liver UA levels were expressed as milligrams per gram of liver protein (mg/g protein)."}, "[2]": {"test_system": "AML12 hepatocytes", "test": "UA production by AML12 cells stimulated with UA precursors", "assay_type": "cell-based", "settings": "for maximum reduction of UA production: guanosine + inosine (GI mixture) 100 µM each, 2 h, vs control (0 µM); for UA production: UA precursor xanthine", "method": "AML12 hepatocytes used in this study were acquired from ATCC (CRL-2254), Manassas, VA, USA. AML12 cells were maintained in DMEM/F-12 (Life Technologies, Grand Island, NY, USA) supplemented with 10% (v/v) fetal bovine serum (FBS; Hyclone, Logan, UT, USA), recombinant human insulin (5 µg/mL), human transferrin (5 µg/mL), and dexamethasone (40 ng/mL), each obtained from FUJIFILM Wako, as well as selenium (3 ng/mL, Sigma-Aldrich) and penicillin–streptomycin mixed solution (100 U/mL penicillin and 100 µg/mL streptomycin, Nacalai Tesque), under a humidified atmosphere of 5% CO2 at 37 °C. Culture of AML12 hepatocytes and measurement of UA production were conducted following a previously reported protocol.Cells were seeded at a density of 1.0 × 10^5 cells per well in 24-well plates and cultured for 72 h in complete medium, followed by 24 h in serum-free DMEM/F-12. After serum deprivation, cells were rinsed once with calcium- and magnesium-free phosphate-buffered saline [PBS (–)] and incubated in 200 µL of balanced salt solution (BSS) containing […], 5 mM KCl, 1 mM MgCl2, 0.8 mM CaCl2, 25 mM NaHCO3, 1 mM NaH2PO4, 10 mM HEPES, and 5 mM glucose. […] The final concentration of DMSO in all samples was adjusted to 0.15%. After a 2-h incubation, 200 µL of the reaction mixture was collected for UA quantification. The UA concentration in BSS was used as an indicator of UA production. Subsequently, cells were washed with PBS (–) and lysed in 300 µL of buffer containing 50 mM Tris and 1 mM sodium phosphate (pH 7.5). Lysates were sonicated and centrifuged (12,000× g, 5 min, 4 °C), and the supernatants were used for protein quantification using the Pierce™ BCA Protein Assay Kit (Thermo Fisher Scientific Inc., Waltham, MA, USA). UA levels were measured using the uricase-based Uric Acid C-Test Wako (FUJIFILM Wako). UA production was expressed as nanomoles per 2 h per milligram of cellular protein (nmol/2 h/mg protein)."}, "[3]": {"biological_target": "T1, hepatic XO (Mus musculus, UniProt Q00519)", "T1 construct": "40 µL of liver homogenate was mixed with 30 µL of ice-cold 100 mM Tris-HCl buffer; from tissue; host or cells: liver of male ICR mice (homogenate supernatant)", "T1 sequence (Q00519 whole entry)": "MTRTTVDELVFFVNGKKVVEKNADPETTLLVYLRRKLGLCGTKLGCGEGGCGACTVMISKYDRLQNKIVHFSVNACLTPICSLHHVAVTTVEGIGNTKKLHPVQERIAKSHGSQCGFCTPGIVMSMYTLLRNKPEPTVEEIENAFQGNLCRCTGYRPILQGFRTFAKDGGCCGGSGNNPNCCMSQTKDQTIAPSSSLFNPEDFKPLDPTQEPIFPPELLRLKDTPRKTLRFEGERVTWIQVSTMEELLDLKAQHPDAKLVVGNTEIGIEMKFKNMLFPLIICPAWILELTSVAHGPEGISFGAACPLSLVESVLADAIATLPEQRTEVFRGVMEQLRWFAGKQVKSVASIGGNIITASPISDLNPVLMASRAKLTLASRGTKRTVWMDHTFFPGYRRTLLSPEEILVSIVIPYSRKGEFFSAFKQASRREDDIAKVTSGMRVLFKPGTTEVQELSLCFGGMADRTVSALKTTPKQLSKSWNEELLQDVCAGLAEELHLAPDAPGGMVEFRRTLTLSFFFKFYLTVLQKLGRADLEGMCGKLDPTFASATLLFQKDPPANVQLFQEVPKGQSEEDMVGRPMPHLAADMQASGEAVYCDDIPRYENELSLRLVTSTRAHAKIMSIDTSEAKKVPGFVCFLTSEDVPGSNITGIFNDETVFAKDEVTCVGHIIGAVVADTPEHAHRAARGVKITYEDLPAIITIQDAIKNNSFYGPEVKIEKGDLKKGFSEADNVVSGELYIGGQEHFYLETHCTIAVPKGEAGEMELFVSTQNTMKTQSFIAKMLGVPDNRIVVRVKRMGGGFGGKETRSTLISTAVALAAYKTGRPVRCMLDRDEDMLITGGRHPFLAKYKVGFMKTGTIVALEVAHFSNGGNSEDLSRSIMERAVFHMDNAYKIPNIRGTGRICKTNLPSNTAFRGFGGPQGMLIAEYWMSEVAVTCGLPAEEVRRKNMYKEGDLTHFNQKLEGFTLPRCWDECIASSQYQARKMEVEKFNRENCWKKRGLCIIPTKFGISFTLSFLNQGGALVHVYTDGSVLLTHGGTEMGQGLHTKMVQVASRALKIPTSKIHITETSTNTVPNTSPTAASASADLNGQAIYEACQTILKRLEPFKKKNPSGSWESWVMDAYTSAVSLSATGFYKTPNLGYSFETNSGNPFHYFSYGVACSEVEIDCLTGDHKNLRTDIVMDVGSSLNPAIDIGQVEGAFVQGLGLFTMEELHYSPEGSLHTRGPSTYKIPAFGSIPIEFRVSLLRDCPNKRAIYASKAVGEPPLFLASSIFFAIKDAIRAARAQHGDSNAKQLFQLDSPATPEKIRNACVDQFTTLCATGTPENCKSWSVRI", "test": "Hepatic XO activity in hyperuricemic model mice", "assay_type": "in vivo, male ICR mice", "settings": "three days, mean ± SEM", "quoted_text": "The test compounds were suspended in 0.2 mL of 0.5% CMC-Na based on the average body weight of each group. The actual volume administered was adjusted according to the individual body weight of each mouse. Prior to each administration, the mice were fasted for four hours. The negative and hyperuricemic control groups received the vehicle (0.5% CMC-Na) alone. On the third day of treatment, hyperuricemia was induced by intraperitoneal injection of guanosine monophosphate (GMP) and inosine monophosphate (IMP, both from Tokyo Chemical Industry, Tokyo, Japan), each at a dose of 300 mg/kg body weight, dissolved in PBS (–). GMP and IMP were dissolved in 0.2 mL of PBS (–) based on the average body weight of all mice. The injection volume was similarly adjusted according to each mouse’s body weight. These injections were performed one hour after the final oral administration of the test compounds or vehicle. The negative control group received PBS (–) alone. […] The liver and kidneys were then excised. Blood samples were centrifuged at 5000× g for 10 min at 4 °C to obtain plasma, which was stored at −80 °C until analysis.\nLiver samples preparation was performed according to the methods previously described [27]. Each portion of the liver tissue was processed for a specific analysis. One portion was homogenized in ice-cold 100 mM Tris-HCl buffer (pH 7.5), followed by sonication and centrifugation at 10,000× g for 5 min at 4 °C. […]\nHepatic XO activity was assessed using a previously reported method [28], with slight modifications to accommodate 96-well microplate measurements [33]. […] The enzymatic reaction was initiated by adding 180 µL of xanthine solution (150 µM in the same buffer), and the absorbance at 295 nm was monitored at 37 °C for 30 min using a Spark 10 M microplate reader. UA formation was quantified based on a standard curve generated with known concentrations of UA. Protein content in the homogenates was determined using the Pierce™ BCA Protein Assay Kit, and XO activity was expressed as micromoles of UA produced per minute per milligram of protein (µmol UA/min/mg protein)."}, "[4]": {"biological_target": "xanthine oxidase (bovine milk-derived) (Bos taurus, UniProt P80457)", "sequence (P80457 whole entry)": "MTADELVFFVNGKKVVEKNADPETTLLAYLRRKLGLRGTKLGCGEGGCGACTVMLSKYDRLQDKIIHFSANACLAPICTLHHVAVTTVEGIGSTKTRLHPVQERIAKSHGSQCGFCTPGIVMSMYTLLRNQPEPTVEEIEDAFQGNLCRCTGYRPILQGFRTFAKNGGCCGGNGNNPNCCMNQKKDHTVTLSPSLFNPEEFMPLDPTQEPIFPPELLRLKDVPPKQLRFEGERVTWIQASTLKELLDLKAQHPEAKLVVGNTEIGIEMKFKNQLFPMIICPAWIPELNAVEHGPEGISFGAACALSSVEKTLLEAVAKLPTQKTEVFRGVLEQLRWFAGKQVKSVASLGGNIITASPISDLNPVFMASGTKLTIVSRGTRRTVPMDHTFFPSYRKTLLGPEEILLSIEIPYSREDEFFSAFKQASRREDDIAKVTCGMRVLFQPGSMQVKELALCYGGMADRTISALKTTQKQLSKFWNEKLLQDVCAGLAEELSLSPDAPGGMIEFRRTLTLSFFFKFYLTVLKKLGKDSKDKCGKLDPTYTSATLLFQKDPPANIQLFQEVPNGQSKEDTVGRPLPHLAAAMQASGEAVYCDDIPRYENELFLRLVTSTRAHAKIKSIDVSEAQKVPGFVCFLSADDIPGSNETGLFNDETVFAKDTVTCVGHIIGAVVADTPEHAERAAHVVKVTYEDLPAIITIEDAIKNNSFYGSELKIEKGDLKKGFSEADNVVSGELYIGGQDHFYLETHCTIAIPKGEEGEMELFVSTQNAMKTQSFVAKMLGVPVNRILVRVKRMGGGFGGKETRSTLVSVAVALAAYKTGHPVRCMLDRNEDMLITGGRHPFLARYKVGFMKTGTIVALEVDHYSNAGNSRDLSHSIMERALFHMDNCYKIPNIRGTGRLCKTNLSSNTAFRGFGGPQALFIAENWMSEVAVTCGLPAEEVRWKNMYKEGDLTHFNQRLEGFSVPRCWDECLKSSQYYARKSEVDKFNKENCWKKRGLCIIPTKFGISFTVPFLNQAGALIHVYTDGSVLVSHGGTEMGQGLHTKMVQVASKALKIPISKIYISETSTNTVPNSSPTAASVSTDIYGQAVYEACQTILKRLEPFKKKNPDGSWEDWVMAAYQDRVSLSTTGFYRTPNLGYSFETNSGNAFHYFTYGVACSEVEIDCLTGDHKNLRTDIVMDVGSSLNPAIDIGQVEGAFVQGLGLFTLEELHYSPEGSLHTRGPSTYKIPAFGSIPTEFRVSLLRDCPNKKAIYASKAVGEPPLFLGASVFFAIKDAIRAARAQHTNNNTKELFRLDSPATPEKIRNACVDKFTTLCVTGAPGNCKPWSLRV", "test": "XO inhibition assay in vitro (UV absorbance at 295 nm)", "assay_type": "biochemical", "settings": "xanthine substrate, 37 °C, mean of three independent experiments, read-out: IC50, direct XO inhibitory activity", "quoted_text": "Prior to the assay, the compounds were freshly dissolved in a mixture of 30% dimethyl sulfoxide (DMSO; FUJIFILM Wako) and 70% phosphate buffer (100 mM, pH 7.5) to prepare test solutions at final concentrations ranging from 0 to 100 µM. In each well of a 96-well microplate, 50 µL of the test solution was mixed with 60 µL of buffer and 30 µL of xanthine oxidase (7.8 mU/mL, bovine milk-derived; Sigma-Aldrich). After preincubation at 37 °C for 10 min, the reaction was initiated by adding 60 µL of xanthine substrate (150 µM; FUJIFILM Wako). Absorbance at 295 nm was monitored for 30 min at 37 °C using a Spark 10 M microplate reader (Tecan Group Ltd., Männedorf, Switzerland). XO inhibitory activity was expressed as percentage inhibition, calculated using the formula Inhibition (%) = 100 × [1 − (B/A)], where A and B represent the absorbance increase in the absence and presence of the test compound, respectively. All measurements were performed in triplicate.\nAll experimental data are presented as mean ± SEM. […] Data from the in vitro XO inhibition assay are shown as mean values from three independent experiments. IC50 values were calculated by nonlinear regression analysis using dose–response curves generated from at least six concentrations of each compound. All statistical analyses were performed using GraphPad Prism version 10 (GraphPad Software, San Diego, CA, USA)."}, "[5]": {"test_system": "ABCC4", "test": "Renal mRNA expression, real-time quantitative PCR", "assay_type": "in vivo, male ICR mice", "settings": "300 mg/kg oral, three days", "method": "(§1) The antihyperuricemic effect of tiliroside was evaluated using mice with purine-induced hyperuricemia, following a previously described procedure. […] The test compounds were suspended in 0.2 mL of 0.5% CMC-Na based on the average body weight of each group. The actual volume administered was adjusted according to the individual body weight of each mouse. Prior to each administration, the mice were fasted for four hours. The negative and hyperuricemic control groups received the vehicle (0.5% CMC-Na) alone. […] GMP and IMP were dissolved in 0.2 mL of PBS (–) based on the average body weight of all mice. The injection volume was similarly adjusted according to each mouse’s body weight. These injections were performed one hour after the final oral administration of the test compounds or vehicle. The negative control group received PBS (–) alone. […] The liver and kidneys were then excised. Blood samples were centrifuged at 5000× g for 10 min at 4 °C to obtain plasma, which was stored at −80 °C until analysis. To assess renal gene expression, four mice per group were selected based on plasma UA levels approximating the group mean. Total RNA was extracted from kidney tissues of the negative control, hyperuricemic model, allopurinol-treated, and high-dose tiliroside-treated groups using the Trizol-chloroform method (Thermo Fisher Scientific). Reverse transcription was performed with 1 µg of RNA using iScript reverse transcriptase (Bio-Rad, Hercules, CA, USA). Quantitative PCR was conducted using the MyiQ2 real-time PCR system (Bio-Rad), with GAPDH as the reference gene."}, "[6]": {"test_system": "GLUT9", "test": "Renal mRNA expression, real-time quantitative PCR", "assay_type": "in vivo, male ICR mice", "settings": "300 mg/kg oral, three days", "method": "as §1"}, "[7]": {"test_system": "ABCG2", "test": "Renal mRNA expression, real-time quantitative PCR", "assay_type": "in vivo, male ICR mice", "settings": "300 mg/kg oral, three days", "method": "as §1"}, "[8]": {"design": "method as in PMID 39830960", "settings": "cited from earlier work"}},
  "data": [
    {"smiles": "Oc1ncnc2[nH]ncc12", "note": "[Allopurinol, allopurinol, reference compound]", "values": [
      {"measurement": "effect on plasma UA increase", "setting": "[1]; 10 mg/kg body weight oral", "value": "significantly reduced"},
      {"measurement": "maximum reduction of UA production", "setting": "[2]; 1 µM", "value": "approximately 94.6%"}
    ]},
    {"smiles": "O=C(/C=C/c1ccc(O)cc1)OC[C@H]1O[C@@H](Oc2c(-c3ccc(O)cc3)oc3cc(O)cc(O)c3c2=O)[C@H](O)[C@@H](O)[C@@H]1O", "note": "[Tiliroside, kaempferol-3-O-(6′′-p-coumaroyl)-glucoside]", "values": [
      {"measurement": "Hepatic XO Activity", "setting": "[3]; 50 mg/kg oral", "value": "0.70 ± 0.08", "unit": "µmol UA/min/mg Protein"},
      {"measurement": "Hepatic XO Activity", "setting": "[3]; 100 mg/kg oral", "value": "0.82 ± 0.06", "unit": "µmol UA/min/mg Protein"},
      {"measurement": "Hepatic XO Activity", "setting": "[3]; 300 mg/kg oral", "value": "0.67 ± 0.07", "unit": "µmol UA/min/mg Protein"},
      {"measurement": "IC50", "setting": "[4]", "value": "> 100", "unit": "µM"},
      {"measurement": "effect on plasma UA levels", "setting": "[1]; 50 mg/kg body weight oral", "value": "failed to produce a statistically significant reduction"},
      {"measurement": "effect on plasma UA levels", "setting": "[1]; 100 mg/kg body weight oral", "value": "failed to produce a statistically significant reduction"},
      {"measurement": "effect on plasma UA increase", "setting": "[1]; 300 mg/kg body weight oral", "value": "significantly reduced"},
      {"measurement": "lowering of plasma UA level", "setting": "[1]; 300 mg/kg oral, hyperuricemic mice", "value": "approximately 30%"},
      {"measurement": "renal ABCC4 mRNA expression", "setting": "[5]", "value": "did not affect"},
      {"measurement": "renal GLUT9 mRNA expression", "setting": "[6]", "value": "did not affect"},
      {"measurement": "renal ABCG2 mRNA expression", "setting": "[7]", "value": "did not affect"},
      {"measurement": "UA production", "setting": "[2]; 10 µM", "value": "82.7 ± 2.4", "unit": "nmol/2 h/mg protein"},
      {"measurement": "UA production", "setting": "[2]; 30 µM", "value": "45.4 ± 1.8", "unit": "nmol/2 h/mg protein"},
      {"measurement": "UA production", "setting": "[2]; 100 µM", "value": "28.0 ± 1.2", "unit": "nmol/2 h/mg protein"},
      {"measurement": "maximum reduction of UA production", "setting": "[2]; 100 µM", "value": "approximately 86.6%"},
      {"measurement": "toxicity and mutagenicity", "setting": "[8]", "value": "non-toxic and non-mutagenic"}
    ]}
  ]
}
